Laboratory results as given in patent publication EP0155244A2, “1-Ethyl-6-fluoro-7-(1H-pirrol-1-yl)-1,4-dihydro-4-oxoquinoline-3-carboxylic acid: preparation and antimicrobial activities” (priority 1985, dated 1985).
Converted amounts (≈) assume the structure as drawn. Where two headings read alike, the source gives them in different places.

Tests used:
[1] = system: Salmonella spp; test: In vitro antibacterial activity, M.I.C. by serial twofold dilution method on Mueller-Hinton agar; assay type: cell-based; conditions: 11 strains, pH 7.2, reading 18 h after incubation at 37°C
Description: (§1) Derivatives (1) and (9) were tested for the in vitro antibacterial activities against Gram-positive and Gram-negative bacteria.Nalidixic acid,pipemidic acid,- piromidic acid and enoxacin were used as positive controls for antibacterial activities.
(§2) Minimum inhibitory concentrations (M.I.C.s) were determined using the serial twolfold dilution method; lectures were performed after incubation at 37° for 18 hours.
(§3) For the experiments the substances were dissolved in NaOH 0.1 N(10 mg/ml);further dilutions in the test medium furnished the required concentrations, generally in the range from 0. 05µg/ml to 100 µg/ml.
(§4) The cultures were obtained on B.H.I. (B.B.L.) after 18 hours incubation at 37°.Tests were carried out using Mueller-Hinton agar (B.B.L.) and inocula were 10^4 bacteria.
(§5) Media M.I.C. values nX (c at least 200 max µg/ml) were calculated by the equation [formula] where si is the number of sensitive strains at the given concentration ci and st is the whole number of the sensitive strains.
(§6) Strains with M.I.C.>200µg/ml are regarded as resistant (R) and are expressed in percentage (%) by the equation : [formula] where N is the whole number of tested strains and N is t s the number of sensitive strains.
(§7) The following species of bacteria freshly isolated from various clinical specimens were tested: 16 strains of […], 10 strains of Staphylococcus spp, 15 strains of Streptococcus ovalis,3 strains of Streptococcus spp, 18 strains of Klebsiella pneumoniae,20 strains of Escherichia coli,ll strains of Salmonella spp (3 S.typhi,l S.paratyphi A,S.paratyphi B, 4 S enteritidis, 1 S.wien and S.infantis,42 strains of Proteus spp (28 P.mirabilis, 8 P.vulgaris,3 P.rettgeri,2 P.morganii and 1 Providencia ) and 8 strains of Pseudomonas aeruginosa.

[2] = system: Klebsiella pneumoniae; test: as above; assay type: cell-based; conditions: 18 strains, pH 7.2, reading 18 h after incubation at 37°C
Description: as §1, §2, §3, §4, §5, §6, §7

[3] = system: Streptococcus ovalis; test: as above; assay type: cell-based; conditions: 15 strains, pH 7.2, reading 18 h after incubation at 37°C
Description: as §1, §2, §3, §4, §5, §6, §7

[4] = system: Staphylococcus spp; test: as above; assay type: cell-based; conditions: 10 strains, pH 7.2, reading 18 h after incubation at 37°C
Description: as §1, §2, §3, §4, §5, §6, §7

[5] = system: Pseudomonas aeruginosa; test: as above; assay type: cell-based; conditions: for R% = percentage of resistant strains / MIC: Pseudomonas aeruginosa, 8 strains, pH 7.2, reading 18 h after incubation at 37°C
Description: as §1, §2, §3, §4, §5, §6, §7

[6] = system: Streptococcus spp; test: as above; assay type: cell-based; conditions: 3 strains, pH 7.2, reading 18 h after incubation at 37°C
Description: as §1, §2, §3, §4, §5, §6, §7

[7] = system: Escherichia coli; test: as above; assay type: cell-based; conditions: E.Coli, 20 strains, pH 7.2, reading 18 h after incubation at 37°C; for MIC: Escherichia coli
Description: as §1, §2, §3, §4, §5, §6, §7

[8] = system: Staphylococcus pyogenes; test: as above; assay type: cell-based; conditions: 16 strains, pH 7.2, reading 18 h after incubation at 37°C; for MIC: Staphylococcus aureus
Description: as §1, §2, §3, §4, §5, §6, §7

[9] = system: Proteus spp; test: as above; assay type: cell-based
Description: as §1, §2, §3, §4, §5, §6, §7

[10] = system: Enterobacteriaceae; test: In vitro antibacterial activity, summary for Enterobacteriaceae; assay type: cell-based
Description: as §1, §2, §3, §4, §5
Strains with M.I.C.>200µg/ml are regarded as resistant (R) and are expressed in percentage (%) by the equation : [formula] where N is the whole number of tested strains and N is t s the number of sensitive strains. […]

[11] = system: Gram-positive bacteria; test: In vitro antibacterial activity, summary for Gram-positive bacteria; assay type: cell-based, Staphylococcus and Streptococcus
Description: as §1, §2, §3, §4, §5, §6, §7

[12] = read-out: nX̄ = MIC mean values of sensitive strains
[13] = Proteus spp, 42 strains, pH 7.2, reading 18 h after incubation at 37°C
[14] = Proteus spp, 42 strains, pH 7.2, reading 18 h after incubation at 37°C, read-out: nX̄ = MIC mean values of sensitive strains

SMILES	MIC [1, 12]	MIC ([1]; read-out: range (MIC))	MIC [2, 12]	MIC ([2]; read-out: range (MIC))	MIC [3, 12]	MIC ([3]; read-out: range (MIC))	MIC [4, 12]	MIC ([4]; read-out: range (MIC))	R% = percentage of resistant strains [5]	MIC [5, 12]	MIC [6, 12]	MIC ([6]; read-out: range (MIC))	MIC [7, 12]	MIC [8, 12]	MIC ([8]; read-out: range (MIC))	R% = percentage of resistant strains [9, 13]	MIC [9, 14]	R% (resistant strains) [11]	R% = percentage of resistant strains [7]	R% = percentage of resistant strains [1]	further results
CCn1cc(C(=O)O)c(=O)c2cc(F)c(-n3cccc3)cc21 [Acid (1), l-Ethyl-6-fluoro-l,4-dihydro-4-oxo-7-(lH-pyrrol-l-yl)quinoline-3-carboxylic acid]	1.3 µg/mL (≈ 4.33 µM)	0.1 to 3.12 µg/mL (≈ 0.333 to 10.4 µM)	3.4 µg/mL (≈ 11.3 µM)	0.8 to 25 µg/mL (≈ 2.66 to 83.3 µM)	8.4 µg/mL (≈ 28 µM)	0.8 to 100 µg/mL (≈ 2.66 to 333 µM)	1.26 µg/mL (≈ 4.2 µM)	0.1 to 3.12 µg/mL (≈ 0.333 to 10.4 µM)	12.5%	5.6 µg/mL (≈ 18.6 µM)	0.2 µg/mL (≈ 0.666 µM)	0.2 µg/mL (≈ 0.666 µM)	2 µg/mL (≈ 6.66 µM)	1.96 µg/mL (≈ 6.53 µM)	0.1 to 12.5 µg/mL (≈ 0.333 to 41.6 µM)	0%	6.46 µg/mL (≈ 21.5 µM)	0%	–	–	activity against Pseudomonas aeruginosa (in words) ([5]; from comparative examination of R% and nX data, not so active as enoxacin): very active; MIC ([7]; read-out: range (MIC)): 0.2 to 12.5 µg/mL (≈ 0.666 to 41.6 µM); range (MIC) [9, 13]: <0.1 to 100 µg/mL; activity against Proteus spp (in words) ([9]; from comparative examination of R% and nX data): highly active; R% (resistant strains) [10]: 0%
CCn1cc(C(=O)O)c(=O)c2cc(F)c(N3CCCC3)cc21 [Acid (9), 1-Ethyl-6-fluoro-1,4-dihydro-4-oxo-7-(pyrrolidin-1-yl) quinoline-3-carboxylic acid]	2.78 µg/mL (≈ 9.14 µM)	0.2 to 6.25 µg/mL (≈ 0.657 to 20.5 µM)	12.7 µg/mL (≈ 41.6 µM)	3.12 to 25 µg/mL (≈ 10.3 to 82.2 µM)	6.2 µg/mL (≈ 20.4 µM)	3.12 to 25 µg/mL (≈ 10.3 to 82.2 µM)	3.98 µg/mL (≈ 13.1 µM)	0.8 to 6.25 µg/mL (≈ 2.63 to 20.5 µM)	12.5%	9.87 µg/mL (≈ 32.4 µM)	2.2 µg/mL (≈ 7.23 µM)	0.4 to 3.12 µg/mL (≈ 1.31 to 10.3 µM)	3.83 µg/mL (≈ 12.6 µM)	5.95 µg/mL (≈ 19.6 µM)	0.4 to 25 µg/mL (≈ 1.31 to 82.2 µM)	7%	4.76 µg/mL (≈ 15.6 µM)	0%	10%	–	R% (resistant strains) [10]: 0%
CCn1cc(C(=O)O)c(=O)c2ccc(C)nc21 [Nalidixic acid, nalidixic acid]	5.2 µg/mL (≈ 22.4 µM)	–	12.9 µg/mL (≈ 55.5 µM)	–	3.12 µg/mL (≈ 13.4 µM)	–	25.6 µg/mL (≈ 110 µM)	–	50%	5.46 µg/mL (≈ 23.5 µM)	–	> 100 µg/mL	12.4 µg/mL (≈ 53.4 µM)	100 µg/mL (≈ 431 µM)	–	33%	6.58 µg/mL (≈ 28.3 µM)	–	25%	18%	R% = percentage of resistant strains [2]: 22%; R% = percentage of resistant strains [3]: 93%; R% = percentage of resistant strains [4]: 50%; R% = percentage of resistant strains [6]: 100%; R% = percentage of resistant strains [8]: 94%
CCn1cc(C(=O)O)c(=O)c2cc(F)c(N3CCNCC3)cc21 [Norfloxacin, norfloxacin]	2.66 µg/mL (≈ 8.33 µM)	0.2 to 12.5 µg/mL (≈ 0.626 to 39.1 µM)	1.93 µg/mL (≈ 6.04 µM)	0.2 to 6.25 µg/mL (≈ 0.626 to 19.6 µM)	17.2 µg/mL (≈ 53.9 µM)	0.8 to 100 µg/mL (≈ 2.51 to 313 µM)	4.79 µg/mL (≈ 15 µM)	0.2 to 25 µg/mL (≈ 0.626 to 78.3 µM)	0%	1.42 µg/mL (≈ 4.45 µM)	3.6 µg/mL (≈ 11.3 µM)	1.56 to 6.25 µg/mL (≈ 4.89 to 19.6 µM)	4.47 µg/mL (≈ 14 µM)	8.64 µg/mL (≈ 27.1 µM)	0.4 to 25 µg/mL (≈ 1.25 to 78.3 µM)	0%	8.1 µg/mL (≈ 25.4 µM)	–	–	–	MIC ([5]; read-out: range (MIC)): 0.4 to 3.12 µg/mL (≈ 1.25 to 9.77 µM); MIC ([7]; read-out: range (MIC)): 0.2 to 25 µg/mL (≈ 0.626 to 78.3 µM); MIC ([9]; Proteus spp, 42 strains, pH 7.2, reading 18 h after incubation at 37°C, read-out: range (MIC)): 0.2 to 100 µg/mL (≈ 0.626 to 313 µM)
CCn1cc(C(=O)O)c(=O)c2cnc(N3CCNCC3)nc21 [Pipemidic acid, pipemidic acid]	17.6 µg/mL (≈ 58 µM)	–	3.79 µg/mL (≈ 12.5 µM)	–	65.6 µg/mL (≈ 216 µM)	–	39.1 µg/mL (≈ 129 µM)	–	0%	12.3 µg/mL (≈ 40.6 µM)	75 µg/mL (≈ 247 µM)	25 to 100 µg/mL (≈ 82.4 to 330 µM)	4.12 µg/mL (≈ 13.6 µM)	36.4 µg/mL (≈ 120 µM)	–	26%	10.8 µg/mL (≈ 35.6 µM)	–	30%	9%	R% = percentage of resistant strains [2]: 22%; R% = percentage of resistant strains [3]: 66%; R% = percentage of resistant strains [4]: 30%; MIC ([5]; read-out: range (MIC)): 1.56 to 25 µg/mL (≈ 5.14 to 82.4 µM); R% = percentage of resistant strains [8]: 44%
CCn1cc(C(=O)O)c(=O)c2cnc(N3CCCC3)nc21 [Piromidic acid, piromidic acid]	60.9 µg/mL (≈ 211 µM)	–	–	–	100 µg/mL (≈ 347 µM)	–	39.1 µg/mL (≈ 135 µM)	–	50%	38.7 µg/mL (≈ 134 µM)	10.4 µg/mL (≈ 36.1 µM)	6.25 to 12.5 µg/mL (≈ 21.7 to 43.4 µM)	44.3 µg/mL (≈ 154 µM)	11.2 µg/mL (≈ 38.8 µM)	–	76%	60 µg/mL (≈ 208 µM)	–	45%	36%	R% = percentage of resistant strains [2]: 61%; R% = percentage of resistant strains [3]: 87%; R% = percentage of resistant strains [4]: 60%; R% = percentage of resistant strains [8]: 69%
CCn1cc(C(=O)O)c(=O)c2cc(F)c(N3CCNCC3)nc21 [enoxacin]	–	–	–	–	–	–	–	–	–	–	–	–	–	–	–	–	–	0%	–	–	–
